Assay results from PubChem BioAssay AID463199 (Broad Institute, 2010).
Active and inactive are the calls of the source.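 The calls were made as follows: active = AC50, the dose giving half-maximal effect, exceeds a fixed cutoff for a compound that rescues yeast growth under heat; inactive = the rest, inconclusive results apart.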

What follows are compounds tested on S. cerevisiae Burl-1 ts mutant growth, BacTiter-Glo, 38.5C 24 h (assay: growth induction of Burl-1 ts yeast mutant, dose response, counter-screen for SUMOylation pathway inhibitor project, whole organism, S. cerevisiae, luminescence (AID 463199)).

Row | Structure (SMILES) | AC50
1 | Cc1ccc(S(=O)(=O)NNC(=O)c2cc3cc4ccccc4nc3s2)cc1 | > 42 µM (inactive)
2 | CSCCc1nc(SCC(=O)Nc2nnc(C)s2)[nH]c1C | > 42 µM (inactive)
3 | CC1(OC(=O)C2CCCC2)C(=O)C=C2C=C(c3ccsc3)OC=C2C1=O (stereo not drawn) | > 42 µM (inactive)
4 | COC(=O)C1(Cc2cc(-c3ccccc3)no2)CCN(C(=O)OC(C)(C)C)CC1 | > 42 µM (inactive)
5 | Cc1nc(N2CCN(c3ccccn3)CC2)c2c(C)c(C(=O)N3CCN(c4ccccc4F)CC3)sc2n1 | > 42 µM (inactive)
6 | O=C1CCC(C(=O)N2CCN(c3ccccc3)CC2)CN1CC1CCCCC1 (stereo not drawn) | > 42 µM (inactive)
7 | Cc1cnc(NC(=O)CN2CCN(c3ccccc3F)CC2)s1 | > 42 µM (inactive)
8 | On1c(-c2ccccc2Cl)nc2ncccc21 | > 42 µM (inactive)
9 | Cc1ccc(S(=O)(=O)Cc2ccc(C(=O)N3CCN(c4ccccn4)CC3)o2)cc1 | > 42 µM (inactive)
10 | COc1ccc(-c2cc(C#N)nc(N3CCN(c4ccccc4)CC3)n2)cc1 | > 42 µM (inactive)
11 | CN/C(=C/[N+](=O)[O-])NCCSCc1ccc(CN(C)C)o1 | > 42 µM (inactive)
12 | Cc1cccc(OCCN2CSC(=S)N(C)C2)c1 | 31.6 µM
13 | O=C1CN(C(=O)COC(=O)c2cccc(S(=O)(=O)NCc3ccccc3)c2)c2ccccc2N1 | > 42 µM (inactive)
14 | CCS(=O)(=O)c1nc(S(=O)(=O)c2ccc(Cl)cc2)c(N2CCc3ccccc3C2)s1 | > 42 µM (inactive)
15 | COc1ccc(-c2nc(NC(=O)CCNC(=O)c3ccco3)sc2C)cc1 | > 42 µM (inactive)
16 | O=c1c2ccccc2nc(SCc2ccc([N+](=O)[O-])cc2)n1CCCO | > 42 µM (inactive)
17 | Cc1cc(Cl)c2oc(C(=O)NC3CCC(O)CC3)c(C)c2c1 (stereo not drawn) | > 42 µM (inactive)
18 | O=C1CCc2cc(S(=O)(=O)N3CCC(C(=O)NC4CCCC4)CC3)ccc2N1 | > 42 µM (inactive)
19 | CC(=O)OCC(OC(C)=O)C(OC(C)=O)C(OC(C)=O)C(=O)Nc1ccccc1 (stereo not drawn) | > 42 µM (inactive)
20 | COc1cccc(C2/C(=C(/O)c3ccccc3)C(=O)C(=O)N2Cc2ccco2)c1 (stereo not drawn) | > 42 µM (inactive)
21 | CN(C(=O)C1CCCO1)c1nnc(-c2cnccn2)s1 (stereo not drawn) | > 42 µM (inactive)
22 | O=c1c2ccccc2ncn1Cc1ccc2c(c1)OCO2 | > 42 µM (inactive)
23 | Cc1c(OC(C)C(=O)N2C[C@H]3C[C@@H](C2)c2cccc(=O)n2C3)ccc2c3c(c(=O)oc12)CCCC3 (stereo partly drawn) | > 42 µM (inactive)
24 | N#Cc1ccc(Oc2ccc(S(=O)(=O)N3CCCCC3)cn2)cc1 | > 42 µM (inactive)

Row | Structure (SMILES) | AC50
25 | CC1CCN(CCCCOc2ccc(F)cc2)CC1 | > 42 µM (inactive)
26 | CCN1CCN(C(=O)c2ccc3nc(-c4ccccc4)c(-c4ccccc4)nc3c2)CC1 | > 42 µM (inactive)
27 | C=C(C)Cc1c(C)c(C#N)c2[nH]c3ccccc3n2c1=O | > 42 µM (inactive)
28 | CCOC(=O)CNC(=O)c1cccnc1 | > 42 µM (inactive)
29 | CCOc1ccc(NC(=O)CC2C(=O)N(c3ccccc3)C(=S)N2Cc2ccccn2)cc1 (stereo not drawn) | > 42 µM (inactive)
30 | CSc1nnc2c3cc(C)ccc3n(Cc3ccccc3)c2n1 | > 42 µM (inactive)
31 | Cc1ccc(NC(=O)Cn2nnc(C(=O)NCc3ccc4c(c3)OCO4)c2N)cc1 | > 42 µM (inactive)
32 | CC1(C)CC(=O)C(C(=O)c2ccccc2)C(=O)C1Cl (stereo not drawn) | > 42 µM (inactive)
33 | O=C(O)c1cn(Cc2ccccn2)c(=O)c2ccccc12 | > 42 µM (inactive)
34 | CCC(NC(=O)c1ccccc1NC(=O)c1ccco1)C(=O)NC1CCCCC1 (stereo not drawn) | > 42 µM (inactive)
35 | CCC(CC)C(=O)Nc1ccc(S(=O)(=O)Nc2nccs2)cc1 | 26 µM
36 | O=C(Nc1ccc(F)cc1F)N1CCCN(c2ccc(C(F)(F)F)cn2)CC1 | > 42 µM (inactive)
37 | O=C(Nc1ccc([N+](=O)[O-])cn1)C1CC1 | > 42 µM (inactive)
38 | CCOC(=O)c1ccc(NC(=O)CC2Sc3ncnn3C2=O)cc1 (stereo not drawn) | > 42 µM (inactive)
39 | CC(C)Oc1ccc(C2(C#N)CC[N+](C)(C)CC2)cc1 | > 42 µM (inactive)
40 | CCOC(=O)C1CCCN(C(=O)c2cc(-c3ccc(F)cc3)nc3ccccc23)C1 (stereo not drawn) | > 42 µM (inactive)
41 | Cc1ccc(-c2csc(C3=C(O)CN(NC(=O)c4ccco4)C3=N)n2)cc1 | > 42 µM (inactive)
42 | Cc1cnc(C(=O)OC(C(=O)c2c[nH]c3ccccc23)c2ccccc2)cn1 (stereo not drawn) | > 42 µM (inactive)
43 | CCOP(=O)(OCC)C(NC(=O)c1cccc(C)c1)C(Cl)(Cl)Cl (stereo not drawn) | > 42 µM (inactive)
44 | O=C1CN(C(=O)c2c(F)cccc2F)C(c2ccc(F)cc2)c2cc(F)ccc2N1 (stereo not drawn) | > 42 µM (inactive)
45 | Cc1ccc(-c2nn(-c3ccccc3)cc2C(=O)N2CCN(c3ccccn3)CC2)cc1 | > 42 µM (inactive)
46 | Cc1ccc(N(C(=O)CCl)C(C(=O)NC2CCCCC2)c2cccnc2)cc1C (stereo not drawn) | > 42 µM (inactive)
47 | Cn1c(SCC(=O)Nc2ccc(N3CCOCC3)c(Cl)c2)nnc1-c1ccccc1 | > 42 µM (inactive)
48 | N#CC1=C(SCC(N)=O)NC(=O)CC1c1ccccc1Cl (stereo not drawn) | > 42 µM (inactive)
